Measured values published in ChEMBL document CHEMBL3872239, “Studies relating to the synthesis, enzymatic reduction and cytotoxicity of a series of nitroaromatic prodrugs” (Bioorg Med Chem Lett, 2016).

What was measured:
[1] = target: T1, NAD(P)H dehydrogenase [quinone] 1 (Homo sapiens, UniProt P15559); assay: Prodrug activation assessed as human NQO1-mediated compound reduction by measuring specific enzyme activity at 100 uM measured every 20 mins by HPLC based UV-Vis method
[2] = target: T1, NAD(P)H dehydrogenase [quinone] 1; assay: Prodrug activation assessed as human NQO1-mediated compound reduction by measuring specific enzyme activity at 100 uM measured every 20 mins by HPLC based UV-Vis method relative to CB1954
[3] = Prodrug activation assessed as Escherichia coli NR-mediated compound reduction by measuring specific enzyme activity at 100 uM measured every 20 mins by HPLC based UV-Vis method
[4] = Prodrug activation assessed as Escherichia coli NR-mediated compound reduction by measuring specific enzyme activity at 100 uM measured every 20 mins by HPLC based UV-vis method relative to CB1954
[5] = Cytotoxicity against Chinese hamster F179 transformed cells assessed as reduction in cell viability after 3 days by SRB assay; format: toxicity, cell-based, Cricetulus griseus
[6] = Cytotoxicity against Chinese hamster DT7 cells expressing human NQO1 assessed as reduction in cell viability after 3 days by SRB assay; format: functional, cell-based, Cricetulus griseus
[7] = Cytotoxicity against Chinese hamster T116 cells expressing Escherichia coli Nitroreductase assessed as reduction in cell viability after 3 days by SRB assay; format: functional, Cricetulus griseus
[8] = Cytotoxicity against Chinese hamster 186/6 cells expressing rat NQO1 assessed as reduction in cell viability after 3 days by SRB assay; format: functional, cell-based, Cricetulus griseus
[9] = target: T1, NAD(P)H dehydrogenase [quinone] 1; assay: Drug metabolism assessed as human NQO1-mediated compound reduction by measuring specific enzyme activity at 100 uM measured every 20 mins by HPLC based UV-Vis method; format: ADME
[10] = Drug metabolism assessed as Escherichia coli NR-mediated compound reduction by measuring specific enzyme activity at 100 uM measured every 20 mins by HPLC based UV-Vis method; format: ADME

T1 sequence (P15559 whole entry): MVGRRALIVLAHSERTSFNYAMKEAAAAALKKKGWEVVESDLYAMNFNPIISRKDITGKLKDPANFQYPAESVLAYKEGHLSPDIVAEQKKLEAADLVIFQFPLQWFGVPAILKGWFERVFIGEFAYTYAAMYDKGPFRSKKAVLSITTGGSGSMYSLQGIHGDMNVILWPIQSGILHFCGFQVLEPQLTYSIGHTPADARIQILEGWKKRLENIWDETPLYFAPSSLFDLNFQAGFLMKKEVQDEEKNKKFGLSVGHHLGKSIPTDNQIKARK

SMILES	Activity [1] [µmol/min/mg]	fold change (FC) [2]	Activity [3] [µmol/min/mg]	fold change (FC) [4]	IC50 [5] [µM]	IC50 [6] [µM]	IC50 [7] [µM]	IC50 [8] [µM]	Activity [9] [µmol/min/mg]	Activity [10] [µmol/min/mg]
O=[N+]([O-])c1cc(C(F)(F)F)ccc1N1Cc2ccccc2CC1CCl (stereo unspecified)	0.0177	2.855	< 0.01	< 0.001	36.6	31.2	39.1	34.4	–	–
O=[N+]([O-])c1ccc(N2Cc3ccccc3CC2CCl)cc1C(F)(F)F (stereo unspecified)	0.012	1.936	0.106	0.057	7.3	5.9	2.9	5.8	–	–
NC(=O)c1cc(N2CC2)c([N+](=O)[O-])cc1[N+](=O)[O-] [TRETAZICAR]	–	–	–	–	196	1.5	0.03	0.05	0.0062	1.86

Second part, led by results:

Activity [1] [µmol/min/mg]	fold change (FC) [2]	Activity [3] [µmol/min/mg]	fold change (FC) [4]	SMILES	IC50 [5] [µM]	IC50 [6] [µM]	IC50 [7] [µM]	IC50 [8] [µM]	Activity [9] [µmol/min/mg]	Activity [10] [µmol/min/mg]
0.0033	0.532	0.254	0.137	O=[N+]([O-])c1ccc(N2Cc3ccccc3CC2CCl)c([N+](=O)[O-])c1 (stereo unspecified)	49	43.1	1.2	36.6	–	–
< 0.0001	< 0.01	< 0.01	< 0.001	O=[N+]([O-])c1ccc(N2Cc3ccccc3CC2CCl)cc1 (stereo unspecified)	3.3	2.8	3.1	2.9	–	–
0.027	4.355	0.166	0.089	O=[N+]([O-])c1ccc(N2Cc3ccccc3CC2CCl)c(C(F)(F)F)c1 (stereo unspecified)	37.8	27.5	3.1	22.6	–	–
